# In patent US6759403B2, “Metalloporphyrins and their uses as radiosensitizers for radiation therapy” (Brookhaven Science Associates, LLC, priority 2001, dated 2004):
# Columns and labels:
# EMT-6 mammary carcinomas = assay: Boron biodistribution in mice with EMT-6 tumors of the dorsal thorax (Example 2); assay type: in vivo, BALB/c mice; conditions: 186 μg CuTCPBr/g body weight total, 6 ip injections over 2 days; 4 days after last injection
# Procedure: Five BALB/c mice bearing subcutaneously implanted EMT-6 mammary carcinomas on the dorsal thorax were given a total dose of 186 μg CuTCPBr/g body weight in 6 intraperitoneal (ip) injections over a period of 2 days. Four days after the last injection mice were euthanized and the average boron concentrations (μg/g wet tissue) were measured for different types of tissue.
# [1] = Toxicity observation during and after porphyrin administration and at necropsy (Examples 2 and 3); assay type: in vivo; conditions: Examples 2 and 3 (186 or 156 μg CuTCPBr/g)
# From the text: Toxicity is the critical factor, and since no toxicity was observed, the dose can be increased to achieve tumor boron concentrations higher than those in Examples 2 and 3.
# EMT-6 mammary tumors = assay: Radiosensitizer study: tumor control with 100 kVp x-irradiation (Example 8); assay type: in vivo, BALB/c mice; conditions: for % tumor control: 89 days observation
# From the text: In this example, female BALB/c mice (Taconic Farms, Germantown, N.Y.) (20-25 g) were used in radiotherapy studies to compare tumor control effects in mice bearing EMT-6 mammary tumors. The EMT-6 leg tumors were formed by mincing freshly removed tumor tissue from mice into fragments no larger than 0.5 mm. The fragments were mixed in a saline solution and implanted subcutaneously (sc) in the legs of mice using an 18-gauge trocar. Tumor fragments were used because in this particular location tumors initiated by cell suspensions tend to spread in a thin subcutaneous layer and invade the subjacent muscle. Using tumor fragments, the tumors are palpable, but thinner on the leg than on the dorsal thorax. In late stage, fragment-initiated tumors can invade muscle tissue but not as frequently as do suspension-initiated tumors.
# At approximately seven days after tumor implantation, the mice were stratified by tumor volume into six (6) matched experimental groups, which included five groups of twelve (12) mice each and a control group of thirty-three (33). Two groups were treated with ≈400 μg/g body weight CuTCPBr and given two doses of 100 kVp x-irradiation x-rays, two groups were treated with only two doses of 100 kVp x-irradiation, one group received CuTCPBr and were euthanized the day of irradiation. The function of the group which was immediately euthanized was to determine the boron concentration in tissues at the time of irradiation. It was not a control group upon which the effectiveness of treatment was compared. The control group of thirty-three mice was not treated at all.
# In all treated groups, single-exposure irradiations were used. For the irradiation procedures, mice were anesthetized with sodium pentobarbital (≈60 μg/gbw i.p.). Each mouse was anesthetized and positioned behind a 1-cm thick lead shield with the tumor-bearing leg extended across a 2-cm aperture in the lead shield in a manner similar to that used in thermal beam irradiation. […]
# Tumor volumes ranged from approximately 20-170 mm^3 in each of the five groups of treated mice. Tumor dimensions were measured 2-3 times per week and mice were euthanized either when calculated tumor volumes (x^2y/2, where x is the shorter surface dimension) exceeded 500 mm^3 or when skin ulceration was observed. Mice were weighed when the tumors were measured, except during the first week, when they were weighed daily. […]
# Mice were euthanized at various time points due to tumor overgrowth. The effectiveness of the treatments was measured by the “% tumor control.” The % tumor control is defined as the number of mice whose tumors were “cured” divided by the total number of mice in a particular dose group. […]
substance,measurement,setting,value
copper octabromotetracarboranylphenylporphyrin [CuTCPBr],"Boron Concentration, Blood",EMT-6 mammary carcinomas,0.6 ± 0.2 μg B/g wet tissue
same,"Boron Concentration, Brain",EMT-6 mammary carcinomas,0.5 ± 0.1 μg B/g wet tissue
same,"Boron Concentration, Liver",EMT-6 mammary carcinomas,272 ± 93 μg B/g wet tissue
same,"Boron Concentration, Tumor",EMT-6 mammary carcinomas,84 ± 15 μg B/g wet tissue
same,tissues at necropsy,[1],all tissues appeared normal
same,"toxic effects, physically or behaviorally",[1]; during and after porphyrin administration,no toxic effects were noted
same,dose modification factor,EMT-6 mammary tumors; CuTCPBr in combination with x-irradiation,> 1.5
same,radiosensitizing effect,EMT-6 mammary tumors; single dose x-irradiation in the presence of CuTCPBr,clear radiosensitizing effect
same,% tumor control,"EMT-6 mammary tumors; ≈400 μg/g CuTCPBr plus single-dose 25 Gy 100 kVp x-rays, x-rays alone 25.0%",41.7%
same,% tumor control,"EMT-6 mammary tumors; ≈400 μg/g CuTCPBr plus single-dose 35 Gy 100 kVp x-rays, x-rays alone 33.3%",66.7%
